Tests used:
Settings in all cases: 72 h
Calu-3 [1] = test: drug sensitivity score (DSS) for viability; higher = more toxic; extreme values may be limits of the assay
Vero E6 [2] = test: as above
U2OS [3] = test: as above
HepG2 [4] = test: as above
Caco-2 [5] = test: as above
Calu-3 [6] = test: relative viability EC50 (midpoint between 100% and the lowest measured viability); higher = less toxic
Vero E6 [7] = test: as above
U2OS [8] = test: as above
HepG2 [9] = test: as above
Caco-2 [10] = test: as above
Calu-3 [11] = test: cell viability relative to DMSO; higher = less toxic
Vero E6 [12] = test: as above
U2OS [13] = test: as above
HepG2 [14] = test: as above
Caco-2 [15] = test: as above

Structure (SMILES) | drug sensitivity score (Calu-3 [1]) | drug sensitivity score (Vero E6 [2]) | drug sensitivity score (U2OS [3]) | drug sensitivity score (HepG2 [4]) | drug sensitivity score (Caco-2 [5]) | relative viability EC50 (Calu-3 [6]) | relative viability EC50 (Vero E6 [7]) | relative viability EC50 (U2OS [8]) | relative viability EC50 (HepG2 [9]) | relative viability EC50 (Caco-2 [10]) | cell viability (Calu-3 [11]; 1 nM) | cell viability (Calu-3 [11]; 10 nM) | cell viability (Calu-3 [11]; 100 nM) | cell viability (Calu-3 [11]; 1000 nM) | cell viability (Calu-3 [11]; 10000 nM) | cell viability (Vero E6 [12]; 1 nM) | cell viability (Vero E6 [12]; 10 nM) | cell viability (Vero E6 [12]; 100 nM) | cell viability (Vero E6 [12]; 1000 nM) | cell viability (Vero E6 [12]; 10000 nM) | cell viability (U2OS [13]; 1 nM) | cell viability (U2OS [13]; 10 nM) | cell viability (U2OS [13]; 100 nM) | cell viability (U2OS [13]; 1000 nM) | cell viability (U2OS [13]; 10000 nM) | cell viability (HepG2 [14]; 1 nM) | cell viability (HepG2 [14]; 10 nM) | cell viability (HepG2 [14]; 100 nM) | cell viability (HepG2 [14]; 1000 nM) | cell viability (HepG2 [14]; 10000 nM) | cell viability (Caco-2 [15]; 1 nM) | cell viability (Caco-2 [15]; 10 nM) | cell viability (Caco-2 [15]; 100 nM) | cell viability (Caco-2 [15]; 1000 nM) | cell viability (Caco-2 [15]; 10000 nM)
O[C@H]([C@H](O)[C@@H]1CO1)[C@H]1CO1 [dianhydrogalactitol] | 0 | 0 | 0 | 0 | 0 | > 10 µM | > 10 µM | > 10 µM | > 10 µM | > 10 µM | 103% | 107% | 99.3% | 95.4% | 94.2% | 97.6% | 96.9% | 93.2% | 97.2% | 99.9% | 99.1% | 104% | 97.2% | 100% | 100% | 99.4% | 101% | 104% | 90.8% | 91.1% | 97.4% | 95.8% | 101% | 104% | 95.7%
CC[C@@]1(O)C(=O)OCc2c1cc1n(c2=O)Cc2cc3cc(O)ccc3nc2-1 [10-hydroxycamptothecin] | 20.5 | 9.1 | 12.7 | 31.8 | 12.2 | 0.0695 µM | 0.9 µM | 0.715 µM | 0.0158 µM | 0.573 µM | 95.8% | 97.5% | 48.7% | 31.4% | 20.2% | 97.4% | 97.5% | 92.9% | 59.9% | 22.5% | 102% | 106% | 90.1% | 41.6% | 1.7% | 102% | 47.8% | 31.2% | 5.3% | 2.1% | 94.2% | 107% | 89.3% | 43% | 13.2%
COc1cc2nc(N3CCN(C(=O)COc4c(OC)cccc4C(C)C)CC3)nc(N)c2cc1OC [Rec-15/2615] | 0.4 | 0 | 0.1 | 1 | 1 | > 10 µM | > 10 µM | > 10 µM | > 10 µM | > 10 µM | 98.7% | 102% | 97.3% | 95.4% | 84.8% | 98.8% | 99.3% | 99.4% | 99.6% | 95.5% | 96.4% | 97.9% | 94.3% | 95.9% | 84.2% | 91.2% | 92.1% | 103% | 92% | 83.7% | 84.3% | 102% | 101% | 90.1% | 84.4%
O=C(NCc1ccc(OC(F)(F)F)cc1)C1c2ccccc2C(=O)N1C1CCOCC1 (stereo not given) [NAV-26] | 0 | 0 | 0 | 0 | 0 | > 10 µM | > 10 µM | > 10 µM | > 10 µM | > 10 µM | 103% | 97.6% | 93.8% | 99.5% | 100% | 95.7% | 101% | 88.7% | 98.9% | 107% | 99.3% | 94.5% | 99% | 95.9% | 91% | 107% | 91.6% | 96.7% | 112% | 112% | 100% | 90.6% | 105% | 96.8% | 99.2%

Source: the supplement of paper PMC13380429
